Measurements published in US20090258883A1, “1H-Indole-Pyridinecarboxamide and 1H-Indole-Piperidinecarboxamide Compounds” (LES LABORATOIRES SERVIER, priority 2005, published 2009).
Marks after values point to notes of the source that are not given here.

Experiments:
[1] = target: dopaminergic receptors (type D1) (Homo sapiens, UniProt P21728); experiment: Affinity for receptors, displacement of labelled specific ligand: D1; format: binding
[2] = tested on: muscarinic (M) receptors; experiment: Affinity for receptors, displacement of labelled specific ligand: muscarinic; format: binding
Protocol: (§1) The affinity for receptors is determined according to customary methods of relations between the specific ligand and the receptor, which may be of animal origin or a human recombinant. The affinity was determined by the method of displacement of the labelled specific ligand by the compound under test and expressed by the dissociation constant KI. The receptor affinity was accordingly studied for 28 conventional receptors.

[3] = tested on: sigma (σ) receptors (ligand: haloperidol); experiment: Affinity for receptors, displacement of labelled specific ligand: sigma; format: binding; settings: concentration 10^−5 M
Protocol: as §1

[4] = Predicted metabolic stability, rat hepatic microsomes; format: in vitro ADME; settings: 10^−7 M, rat hepatic microsomes 0.33 mg of prot/ml, NADPH
Protocol: (§2) The predicted metabolic stability is tested by incubation of the compounds at a concentration of 10^−7M in the presence of mouse, rat or human hepatic microsomes (0.33 mg of prot/ml). After addition of NADPH (nicotinamide adenine dinucleotide phosphate, reduced form), samples are taken at 0, 5, 15, 30 and 60 minutes. The enzymatic reaction is stopped using methanol (V/V). The protein is precipitated by centrifugation and the supernatant is analysed by LC-MS-MS.

[5] = tested on: tyrosine hydroxylase (TH) protein; experiment: Induction of tyrosine hydroxylase (TH) in LC, SN and VTA of the mouse brain; format: in vivo, Balb/C mouse; settings: three days after single injection, relative to mean value of control group
Excerpt: A search is made among the compounds for those which are capable of bringing about an increase in the tyrosine hydroxylase (TH) protein in the locus coeruleus (LC), substantia nigra (SN) and ventral tegmental area (VTA) of the brain of the Balb/C mouse. The animals used are consanguinal male mice of the pure Balb/C strain (Charles River Laboratories) aged 6 weeks at the time of treatment.
The mice are given a single injection, by the intraperitoneal route, of the compound under test, dissolved in 0.04M HCl solution (corresponding control: 0.04M HCl), if the compound is sufficiently soluble, or in olive oil 90%/DMSO 10% (corresponding control: olive oil 90%/DMSO 10%) for compounds that are insoluble in an aqueous medium. The volume injected is 100 μl. The test groups comprise 10 animals.
Three days after the injection of each compound, all the animals are sacrificed by decapitation. The brains are removed and then frozen in an isopentane solution at −30° C. for 45 seconds and subsequently stored at −80° C.
Serial coronal sections 20 microns thick are then taken using a cryomicrotome. Each structure of interest is then sampled along the posterior-anterior axis of the brain by taking sections at 80-micron spacings in the case of the LC and at 80- or 160-micron spacings in the case of the VTA and SN. The limits of those structures are those described in the atlas of Franklin and Paxinos. The total proteins of each of those sections are transferred by direct collection of the sections to a nitrocellulose filter (Millipore). The amounts of TH present in each sample are measured by immunochemistry, fluorimetric detection and image analysis.

[6] = target: dopaminergic receptors (type D2) (Homo sapiens, UniProt P14416); experiment: Affinity for receptors, displacement of labelled specific ligand: D2; format: binding
[7] = Predicted metabolic stability, human hepatic microsomes; format: in vitro ADME; settings: 10^−7 M, human hepatic microsomes 0.33 mg of prot/ml, NADPH
Protocol: as §2

[8] = target: 5HT receptors (type 5HT2A) (Homo sapiens, UniProt P28223); experiment: Affinity for receptors, displacement of labelled specific ligand: 5HT2A; format: binding
[9] = Predicted metabolic stability, mouse hepatic microsomes; format: in vitro ADME; settings: 10^−7 M, mouse hepatic microsomes 0.33 mg of prot/ml, NADPH
Protocol: as §2

Chain of dopaminergic receptors (type D2) (P14416 whole entry): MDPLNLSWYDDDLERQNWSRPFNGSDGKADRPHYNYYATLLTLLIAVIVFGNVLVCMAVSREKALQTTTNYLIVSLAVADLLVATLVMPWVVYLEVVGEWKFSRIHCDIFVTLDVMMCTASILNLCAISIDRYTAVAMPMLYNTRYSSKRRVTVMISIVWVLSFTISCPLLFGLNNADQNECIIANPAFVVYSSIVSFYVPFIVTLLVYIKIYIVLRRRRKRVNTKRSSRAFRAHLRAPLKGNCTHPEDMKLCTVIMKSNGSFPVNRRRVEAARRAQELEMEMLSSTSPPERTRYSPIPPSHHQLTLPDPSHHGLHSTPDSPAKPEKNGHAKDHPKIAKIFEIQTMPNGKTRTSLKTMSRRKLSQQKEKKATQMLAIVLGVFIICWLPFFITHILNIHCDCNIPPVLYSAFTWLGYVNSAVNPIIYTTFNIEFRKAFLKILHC
Chain of dopaminergic receptors (type D1) (P21728 whole entry): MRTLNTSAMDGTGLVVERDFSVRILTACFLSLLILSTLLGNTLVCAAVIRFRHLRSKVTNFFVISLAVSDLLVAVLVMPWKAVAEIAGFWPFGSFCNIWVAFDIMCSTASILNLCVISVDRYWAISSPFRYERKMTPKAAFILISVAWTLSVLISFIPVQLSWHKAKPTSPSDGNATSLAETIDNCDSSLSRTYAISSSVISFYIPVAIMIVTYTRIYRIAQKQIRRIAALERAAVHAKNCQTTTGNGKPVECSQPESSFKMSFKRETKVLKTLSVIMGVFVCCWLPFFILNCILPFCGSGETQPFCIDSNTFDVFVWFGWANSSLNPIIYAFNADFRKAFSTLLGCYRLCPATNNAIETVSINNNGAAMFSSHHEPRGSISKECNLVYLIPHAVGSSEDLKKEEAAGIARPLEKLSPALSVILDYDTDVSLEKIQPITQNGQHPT
Chain of 5HT receptors (type 5HT2A) (P28223 whole entry): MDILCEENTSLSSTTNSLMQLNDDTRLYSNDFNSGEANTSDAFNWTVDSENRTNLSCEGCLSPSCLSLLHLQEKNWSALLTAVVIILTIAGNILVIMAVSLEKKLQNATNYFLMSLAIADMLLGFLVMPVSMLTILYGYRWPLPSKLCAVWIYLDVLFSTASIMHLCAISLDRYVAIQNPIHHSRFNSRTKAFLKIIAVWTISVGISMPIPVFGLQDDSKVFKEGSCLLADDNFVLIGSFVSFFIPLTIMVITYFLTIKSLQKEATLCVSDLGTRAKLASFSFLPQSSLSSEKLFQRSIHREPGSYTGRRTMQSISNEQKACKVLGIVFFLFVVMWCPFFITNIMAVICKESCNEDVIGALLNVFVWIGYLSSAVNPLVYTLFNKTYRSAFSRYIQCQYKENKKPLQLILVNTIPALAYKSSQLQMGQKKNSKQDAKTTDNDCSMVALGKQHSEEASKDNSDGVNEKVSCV

For `CN1CCN(CCN2CCC=C(C(=O)Nn3ccc4cc(Cl)ccc43)C2)CC1` [Example 47, N-(5-Chloroindol-1-yl)-1-[2-(4-methylpiperazin-1-yl)ethyl]-1,2,5,6-tetrahydropyridine-3-carboxamide], the inhibition at 10 µM ([1]; concentration 10^−5 M) was less than 10%, the inhibition at 0.1 µM ([1]; concentration 10^−7 M) was less than 10% and the “% inhibition M” value ([2]; concentration 10^−5 M) was 10%. The “% inhibition M” value ([2]; concentration 10^−7 M) was 19%, the “% inhibition σ” value [3] was 67% and the “% metabolic stability predicted using hepatic microsomes, Rat” value [4] was 87%. The “amount of TH in LC section 1” value ([5]; LC section 1 (posterior-to-anterior), i.p. 20 mg/kg) was 232** %, the “amount of TH in LC section 2” value ([5]; LC section 2, i.p. 20 mg/kg) was 138* % and the “amount of TH in LC section 3” value ([5]; LC section 3, i.p. 20 mg/kg) was 176** %. For the same compound, the “amount of TH in LC section 4” value ([5]; LC section 4, i.p. 20 mg/kg) was 179** %, the “amount of TH in LC section 5” value ([5]; LC section 5, i.p. 20 mg/kg) was 172** % and the “amount of TH in LC section 6” value ([5]; LC section 6, i.p. 20 mg/kg) was 169** %. The “amount of TH in LC section 7” value ([5]; LC section 7, i.p. 20 mg/kg) was 153** %, the “amount of TH in LC section 8” value ([5]; LC section 8, i.p. 20 mg/kg) was 140** % and the “amount of TH in LC section 9” value ([5]; LC section 9, i.p. 20 mg/kg) was 84* %. For the same compound, the “amount of TH in LC section 10” value ([5]; LC section 10, i.p. 20 mg/kg) was 88%, the “amount of TH in LC section 11” value ([5]; LC section 11, i.p. 20 mg/kg) was 127% and the “amount of TH, LC, total” value ([5]; LC total, i.p. 20 mg/kg) was 147** %. The inhibition at 10 µM ([6]; concentration 10^−5 M) was less than 10%, the inhibition at 0.1 µM ([6]; concentration 10^−7 M) was less than 10% and the “% metabolic stability predicted using hepatic microsomes, Human” value [7] was 78%. For the same compound, the inhibition at 10 µM ([8]; concentration 10^−5 M) was 15%, the inhibition at 0.1 µM ([8]; concentration 10^−7 M) was 10% and the “% metabolic stability predicted using hepatic microsomes, Mouse” value [9] was 53%.
